Experimental data as given in patent publication EP0258134A1, “Therapeutical compositions containing benzhydryl thiomethane derivatives” (LABORATOIRE L. LAFON, priority 1986, dated 1988).

Key:
[1] = test system: souris; assay: Spontaneous motility (actimeter); format: in vivo; settings: souris, half an hour before the actimeter
Protocol: Après avoir reçu le composé CRL 41 334, les souris sont placées en actimètre où leur motilité est enregistrée pendant 30 minutes.
Une demi-heure après avoir reçu le CRL 41 055, les souris (6 par dose, 12 témoins) sont placées en actimètre où leur motilité est enregistrée pendant 30 minutes.
Une demi-heure après avoir reçu le CRL 40 956, les souris (6 par dose, 12 témoins) sont placées en actimètre ou leur motilité est enregistrée pendant 30 minutes.

[2] = test system: souris; assay: Global behaviour and reactivities, mouse, i.p.; format: in vivo
Protocol: (§1) Le composé CRL 41 334, en suspension dans une solution de gomme arabique, a été administré par voie intrapéritonéale sous un volume de 20 ml/kg chez la souris (mâle, NMRI, C.E.R. Janvier) et de 5 ml/kg chez le rat (mâle, CD₁; SPRAGUE DAWLEY, Charles River).
(§2) Des lots de 3 animaux sont observés avant, puis 15 mn, 30 mn, 1h, 2h, 3h et 24 heures après l'administration du composé CRL 41 334.
(§3) Le CRL 41 055, en suspension dans une solution de gomme arabique, a été administré par voie intrapéritonéale sous un volume de 20 ml/kg chez la souris (mâle, NMRI, Evic Ceba).
(§4) Le CRL 40 956, en suspension dans une solution de gomme arabique a été administré par voie intrapéritonéale sous un volume de 20 ml/kg chez la souris (mâle, NMRI, Evic Céba) et de 5 ml/kg chez le rat (mâle, CD₁, Sprague Dawley, Charles River).
(§5) Des lots de 3 animaux sont observés avant, puis 15 mn, 30 mn, 1 h, 2 h, 3 h et 24 heures après l'administration de CRL 40 956.

[3] = test system: souris; assay: Pretoxicity, i.p., 3 mice per dose; format: in vivo
Protocol: as §1
I - PRETOXICITE ( 3 souris par dose)
as §3
Prétoxicite (3 souris par dose)
as §4
Prétoxicité ( 3 souris par dose)

[4] = test system: souris; assay: Motility reduced by habituation to the enclosure; format: in vivo; settings: 32 et 128 mg/kg
Protocol: Après 18 heures de séjour dans les actimè-tres, les souris (6 par dose, 12 témoins) reçoivent le composé CRL 41 334. Elles sont aussitôt replacées dans leurs enceintes respectives et, une demi-heure plus tard, on enregistre leur motilité pendant 30 minutes.
Après 18 heures de séjour dans les actimètres, les souris (6 par dose, 12 émoins) reçoivent le CRL 41 055. Elles sontaussitôt replacées dans leurs enceintes respectives et, une demi-heure plus tard, on enregistre leur motilité pendant 30 minutes.

[5] = Solubility in water; format: physicochemical; settings: result in words
Excerpt: Le composé est une poudre blanche, insoluble dans l'éther de pétrole, soluble dans l'éther, l'acé-tate d'éthyle et les alcools. Sa solubilité dans l'eau est inférieure à 0,1%.

[6] = test system: homme; assay: Therapeutic use in humans; format: in vivo; settings: trois gélules de 50 mg par jour
[7] = test system: souris femelles de souche OF₁; assay: Delayed hypersensitivity reaction to sheep red blood cells; format: in vivo; settings: for Ind. Activité / % d'augmentation du coussinet (mm) m: voie orale; for % d'augmentation du coussinet (mm) m: trois jours avant immunisation
Excerpt: Selon la méthode de Miller, Lagrange et Mackaness ("Immunopotentiation with BCG II modulation of the response to sheep red blood cells", Journal of the National Cancer Institute 1973, 51, 5, 1669 - 1676).
Le composé à tester est administré par voie orale a des souris femelles de souche OF₁ trois jours avant immunisation.
Les résultats sont exprimés en pourcentage d'augmentation du coussinet plantaire.

[8] = test system: rat; assay: Interaction with apomorphine, rat; format: in vivo; settings: 64 et 256 mg/kg, apomorphine 0,5 mg/kg s.c.
Protocol: Le composé CRL 41 334 est administré à des lots de 6 rats une demi-heure avant l'injection sous-cutanée de 0,5 mg/kg d'apomorphine.
Le CRL 40 956 est administré à des lots de 6 rats une demi-heure avant l'injection sous cutanée de 0,5 mg/kg d'apomorphine.

[9] = test system: souris; assay: Interaction with barbital; format: in vivo; settings: souris, 512 mg/kg, barbital 200 mg/kg i.p.
Protocol: Une demi-heure après l'administration du composé CRL 41 334, des lots de 20 souris reçoivent une injection intrapéritonéale de barbital ([…]).
Une demi-heure après l'administration du CRL 40 956 des lots de 10 souris reçoivent une injection intrapéritonéale de 200 mg/kg de barbital.

[10] = test system: souris; assay: Asphyxic anoxia (gallamine triethiodide); format: in vivo; settings: 512 mg/kg, gallamine 32 mg/kg i.p.
Protocol: Des lots de 20 souris reçoivent le composé CRL 41 334 une demi-heure avant l'administration intrapéritonéale de 32 mg/kg de triiodoéthylate de gallamine.
Des lots de 10 souris reçoivent le CRL 40 956 une demi-heure avant l'administration intrapé-ritonéale de 32 mg/kg de triodoéthylate de Gallamine.

[11] = test system: souris; assay: Behavioural despair (forced immersion); format: in vivo; settings: souris, 512 mg/kg
Excerpt: Une demi-heure après avoir reçu le composé CRL 41 334, des lots de 6 souris (mâles, CD₁, Charles River) sont placés dans un bécher rempli d'eau sur une hauteur de 6 cm. On note la durée totale d'immobilité entre la 2ème et la 6ème minutes suivant l'immersion.
Une demi-heure après avoir reçu le CRL 40 956, des lots de 10 souris (mâles CD₁ Charles River) sont plongées dans une enceinte réduite remplie d'eau sur une hauteur de 6 cm. On note la durée totale d'immobilité entre la 2ème et la 6ème minute suivant l'immersion.

[12] = test system: rat; assay: Global behaviour and reactivities, rat, i.p.; format: in vivo; settings: rat
Protocol: as §1, §2, §4, §5

[13] = test system: souris; assay: Intergroup aggressiveness; format: in vivo; settings: 128 mg/kg
Protocol: Après avoir séjourné pendant 3 semaines dans chacune des moitiés d'une cage séparées par une cloison opaque, des groupes de 3 souris reçoivent le composé CRL 41 334. Une demi-heure plus tard, les deux groupes d'une même cage sont réunis par retrait de la cloison et on note le nombre de combats qui surviennent en 10 minutes. Le test est pratiqué pour moitié sur les souris habituelles (NMRI, C.E.R. Janvier) et pour moitié sur des souris NMRI (Iffa Credo).
Après avoir séjourné pendant 3 semaines dans chacune des moitiés d'une cage séparée par une cloison opaque, des groupes de 3 souris reçoivent le CRL 40 956. Une demi-heure plus tard, les deux groupes d'une même cage sont réunis par retrait de la cloison et on note le nombre de combats qui surviennent en 10 minutes.

[14] = test system: rat; assay: Search for stereotyped movements, rat; format: in vivo; settings: in vivo, 2 mg/kg
Excerpt: Des lots de 6 rats reçoivent une injection du composé CRL 41 334 ou d'amphétamine, puis sont immédiatement placés dans des boîtes de petites dimensions (20 x 10 x 10 cm) où leur comportement stéréotypeé est coté de 0 à 3 jusqu'à extinction de l'effet.

In the case of `NC(=O)CSC(c1ccccc1)c1ccccc1` [CRL 41 055, 2-(benzhydrylthio)acétamide], the “motilité spontanée” value ([1]; 32 et 128 mg/kg) is reported as “augmentation de motilité spontanée”, the “comportement et réactivités” value ([2]; souris, 2 mg/kg i.p.) is reported as “pas de modifications nettes” and the “comportement et réactivités” value ([2]; souris, 128 mg/kg i.p.) is reported as “sédation pendant 30 minutes faisant place à une excitation tardive”. The “comportement et réactivités” value ([2]; souris, 8 et 32 mg/kg i.p.) was “excitation pendant 2 heures”, the symptômes ([3]; 64 mg/kg i.p., after 45 minutes, lasting more than 2 hours) was “excitation, stéréotypies (reniflements, redressements)” and the symptômes ([3]; 512 mg/kg i.p.) was “sédation, fréquence respiratoire diminuée, contractions abdominales”. The convulsions ([3]; 512 mg/kg i.p., 18 heures après l'injection) was “convulsions intermittentes présentes chez toutes les souris”, the mortalité ([3]; 512 mg/kg i.p., après 48 heures) was 1/3 and the symptômes ([3]; 1024 mg/kg i.p.) was “mêmes symptômes”. For the same molecule, the mortalité ([3]; 128 et 256 mg/kg i.p.) was “Pas de mortalité”, the symptômes ([3]; 128 et 256 mg/kg i.p.) was “pendant 45 minutes sédation, fréquence respiratoire diminuée” and the “activité motrice chez la souris habituée à son enceinte” value [4] was “reprise nette de l'activité motrice”. The “solubilité dans l'eau” value [5] was “insoluble dans l'eau” and the “thérapeutique humaine comme antidépresseur” value [6] was “s'est avéré utile”.
For `O=C(CSC(c1ccc(F)cc1)c1ccc(F)cc1)NO` [CRL 41 335, acide 2-(4,4ʹ-difluorobenzhydrylthio)acétohydroxamique], the “Ind. Activité” value ([7]; Exp 1, 0,1 mg/kg) was 1,29, the “% d'augmentation du coussinet (mm) m” value ([7]; Exp 1, 0,1 mg/kg) was 11,5% and the “Ind. Activité” value ([7]; Exp 1, 1 mg/kg) was 0,94. For the same molecule, the “% d'augmentation du coussinet (mm) m” value ([7]; Exp 1, 1 mg/kg) was 8,4%, the “Ind. Activité” value ([7]; Exp 1, 10 mg/kg) was 1,00 and the “% d'augmentation du coussinet (mm) m” value ([7]; Exp 1, 10 mg/kg) was 8,9%. For the same molecule, the “Ind. Activité” value ([7]; Exp 1, 100 mg/kg) was 0,77, the “% d'augmentation du coussinet (mm) m” value ([7]; Exp 1, 100 mg/kg) was 6,9% and the action immunostimulante ([7]; overall statement in the text) was “dépourvu d'une telle action immostimulante”. The “solubilité dans l'eau” value [5] was “insoluble dans l'eau”.
In the case of `ON=CCSC(c1ccccc1)c1ccccc1` [CRL 40 956, 2-(benzhydrylthio)acétaldoxime], the “stéréotypies induites par l'apomorphine” value [8] is reported as “diminue très modérément l'intensité des stéréotypies”, the “durée du sommeil barbiturique” value [9] is reported as “diminue la durée du sommeil barbiturique” and the “apparition des convulsions et de la mort” value [10] is reported as “retarde modérément l'apparition des convulsions et de la mort”. The “durée d'immobilité "de désespoir"” value [11] was “diminue la durée d'immobilité”, the “activité motrice spontanée” value ([1]; 512 mg/kg) was “diminue fortement l'activité motrice spontanée” and the “comportement et réactivités” value ([12]; 64 mg/kg i.p.) was “sédation pendant 3 heures avec diminution”. The “comportement et réactivités” value ([12]; 256 mg/kg i.p.) was “sédation pendant 3 heures”, the “comportement et réactivités” value ([2]; souris, 512 mg/kg i.p.) was “sédation pendant 2 à 3 heures” and the “comportement et réactivités” value ([2]; souris, 128, 32 et 8 mg/kg i.p.) was “pas de symptômes nets”. For the same molecule, the symptômes ([3]; 256 mg/kg i.p.) was “mêmes symptômes”, the mortalité ([3]; 1024 et 512 mg/kg i.p.) was “pas de mortalité” and the symptômes ([3]; 1024 et 512 mg/kg i.p.) was “crampes abdominales, dyspnée”. The “solubilité dans l'eau” value [5] was “Insoluble dans l'eau” and the nombre de combats [13] was “diminue le nombre de combats”.
With `CC(N)Cc1ccccc1` (stereo not drawn) [amphétamine, reference compound] the “durée des stéréotypies” value [14] was 270 min.
